Data as given in US7713994B2 (Wyeth LLC, priority 2005, dated 2010).
Where two headings read alike, the source gives them in different places.

What was measured:
BT474 = experiment: Cytotoxicity assay (SRB), BT474; assay type: cell-based
In short: (§1)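 Cells were seeded overnight in RPMI 1640 with 5% FBS at 37 °C, 7% CO2 (12000/well BT474, 4000 HCT-116, 6000 LoVo, 6000 MCF-7), then exposed to compound dilutions for 3 days (6 days for BT474). Survival versus untreated controls was measured by TCA fixation and SRB staining at 540 nm.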

LoVo = experiment: Cytotoxicity assay (SRB), LoVo; assay type: cell-based; conditions: LoVo cells, SRB, read-out: In Vitro Cellular Activity IC50 LOVO
In short: as §1

cyclin E/CDK2 enzyme = target: T1, cyclin E/CDK2 enzyme (Homo sapiens, UniProt P24941); experiment: CDK2 ELISA kinase assay (phospho-Rb ser 795 detection); assay type: biochemical
T1 construct: made in house; host or cells: Sf9 insect cells, recombinant baculovirus
In short: (§2)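 Wells were coated overnight with GST-Rb C-terminal fragment, then blocked. Compound (10 ug/ml final) and cyclin/CDK enzyme from baculovirus-infected Sf9 cells with 200 μM ATP reacted 1 h at 30° C. Ser795 phosphorylation was detected by ELISA at 450 nm.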

HCT-116 = experiment: Cytotoxicity assay (SRB), HCT-116; assay type: cell-based; conditions: HCT116 cells, SRB, read-out: In Vitro Cellular Activity IC50 HCT116
In short: as §1

MCF-7 = experiment: Cytotoxicity assay (SRB), MCF-7; assay type: cell-based; conditions: MCF-7 cells, SRB, read-out: In Vitro Cellular Activity IC50 MCF-7
In short: as §1

cyclin B/CDK1 enzyme = target: T2, cyclin B/CDK1 enzyme (Homo sapiens, UniProt P06493); experiment: CDK1 ELISA kinase assay (phospho-Rb ser 795 detection); assay type: biochemical
T2 construct: purchased New England BioLabs; host or cells: Sf9 insect cells, recombinant baculovirus
In short: as §2

cyclin D1/cdk 4 enzyme = target: T3, cyclin D1/cdk 4 enzyme (Homo sapiens, UniProt P11802); experiment: CDK4 ELISA kinase assay (phospho-Rb ser 795 detection); assay type: biochemical
T3 construct: made in house; host or cells: Sf9 insect cells, recombinant baculovirus
In short: as §2

[1] = Homo sapiens, BT-474, 144 h, BT474 cells, 6 days, SRB; read-out: In Vitro Cellular Activity IC50 BT474
[2] = Homo sapiens, LoVo, 72 h, 3 days
[3] = In Vitro Enzyme Assay, cyclin E/CDK2, read-out: CDK2 IC50
[4] = Homo sapiens, HCT-116, 72 h, 3 days
[5] = Homo sapiens, MCF7, 72 h, 3 days
[6] = In Vitro Enzyme Assay, cyclin B/CDK1, read-out: CDK1 IC50
[7] = In Vitro Enzyme Assay, cyclin D1/cdk 4, read-out: CDK4 IC50
[8] = Homo sapiens, BT-474, 144 h, BT474 cells, SRB, 6 days; read-out: In Vitro Cellular Activity IC50 BT474
[9] = Homo sapiens, LoVo, 72 h, three days
[10] = In Vitro Enzyme Assays, read-out: CDK2 IC50
[11] = Homo sapiens, HCT-116, 72 h, three days
[12] = Homo sapiens, MCF7, 72 h, three days
[13] = In Vitro Enzyme Assays, read-out: CDK1 IC50
[14] = In Vitro Enzyme Assays, 200 μM ATP, read-out: CDK4 IC50
[15] = BT474 cells, SRB, 6 days; read-out: In Vitro Cellular Activity IC50 BT474

T3 sequence (P11802 whole entry, species assumed): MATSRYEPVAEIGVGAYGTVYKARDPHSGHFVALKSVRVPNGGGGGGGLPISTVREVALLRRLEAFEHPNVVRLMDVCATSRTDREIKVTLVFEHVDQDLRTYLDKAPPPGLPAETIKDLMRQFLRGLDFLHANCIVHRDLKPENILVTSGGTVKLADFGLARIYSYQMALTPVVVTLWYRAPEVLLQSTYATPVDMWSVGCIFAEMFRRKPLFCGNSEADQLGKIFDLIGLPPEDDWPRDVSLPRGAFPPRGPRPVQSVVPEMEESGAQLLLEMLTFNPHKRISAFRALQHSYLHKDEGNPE
T3 sequence (P24385 whole entry partner, species assumed): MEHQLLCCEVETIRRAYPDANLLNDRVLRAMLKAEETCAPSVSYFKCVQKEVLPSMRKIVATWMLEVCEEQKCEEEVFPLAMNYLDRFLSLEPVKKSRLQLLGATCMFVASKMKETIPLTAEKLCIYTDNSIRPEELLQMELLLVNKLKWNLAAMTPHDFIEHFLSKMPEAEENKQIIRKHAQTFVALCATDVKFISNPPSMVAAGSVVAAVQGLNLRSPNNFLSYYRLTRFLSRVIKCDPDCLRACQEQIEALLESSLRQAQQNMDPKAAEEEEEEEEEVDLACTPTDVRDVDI
T2 sequence (P06493 whole entry): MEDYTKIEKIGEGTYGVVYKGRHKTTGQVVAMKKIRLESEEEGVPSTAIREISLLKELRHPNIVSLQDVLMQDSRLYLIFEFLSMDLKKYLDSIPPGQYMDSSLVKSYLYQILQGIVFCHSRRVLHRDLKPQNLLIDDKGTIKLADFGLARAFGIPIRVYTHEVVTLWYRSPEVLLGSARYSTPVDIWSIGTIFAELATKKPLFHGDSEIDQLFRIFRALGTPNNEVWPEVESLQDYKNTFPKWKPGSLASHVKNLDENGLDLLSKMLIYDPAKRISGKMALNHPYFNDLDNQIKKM
T2 sequence (P14635 whole entry partner): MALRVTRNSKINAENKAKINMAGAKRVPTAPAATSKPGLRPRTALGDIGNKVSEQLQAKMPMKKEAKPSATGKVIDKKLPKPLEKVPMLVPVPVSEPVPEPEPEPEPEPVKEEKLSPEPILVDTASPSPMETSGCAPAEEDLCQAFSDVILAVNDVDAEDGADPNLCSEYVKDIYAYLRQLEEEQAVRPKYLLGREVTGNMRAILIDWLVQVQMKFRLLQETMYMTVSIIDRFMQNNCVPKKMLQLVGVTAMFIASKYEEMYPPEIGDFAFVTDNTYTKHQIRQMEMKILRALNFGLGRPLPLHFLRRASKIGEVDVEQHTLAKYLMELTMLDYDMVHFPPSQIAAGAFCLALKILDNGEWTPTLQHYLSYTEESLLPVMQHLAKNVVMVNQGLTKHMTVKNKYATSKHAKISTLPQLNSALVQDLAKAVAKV

Compound	IC50 (cyclin E/CDK2 enzyme; [3]) [µM]	IC50 (cyclin B/CDK1 enzyme; [6]) [µM]	IC50 (cyclin D1/cdk 4 enzyme; [7]) [µM]	IC50 (cyclin E/CDK2 enzyme; [10]) [µM]	IC50 (cyclin B/CDK1 enzyme; [13]) [µM]	IC50 (cyclin D1/cdk 4 enzyme; [14]) [µM]	IC50 (BT474; [1]) [µM]	IC50 (LoVo; [2]) [µM]	IC50 (HCT-116; [4]) [µM]	IC50 (MCF-7; [5]) [µM]	IC50 (BT474; [8]) [µM]	IC50 (LoVo; [9]) [µM]	IC50 (HCT-116; [11]) [µM]	IC50 (MCF-7; [12]) [µM]	IC50 (BT474; [15]) [µM]	IC50 (LoVo; three days) [µM]	IC50 (HCT-116; three days) [µM]	IC50 (MCF-7; three days) [µM]
O=C1NC(=O)c2ccc(N(CCC(F)(F)F)CCC(F)(F)F)cc2C1=CNCc1ccc(O)c(O)c1 [Example 611, 6-[Bis-(3,3,3-trifluoro-propyl)-amino]-4-[(3,4-dihydroxy-benzylamino)-methylene]-4H-isoquinoline-1,3-dione]	18.1	18.1	12.9				23.6	16.1	14.1	13.2								
CN(C)c1ccc(-c2ccc3c(c2)C(=CNCc2ccc(O)c(O)c2)C(=O)NC3=O)cc1 [Example 816, 4-[(3,4-Dihydroxy-benzylamino)-methylene]-6-(4-dimethylamino-phenyl)-4H-isoquinoline-1,3-dione]	24.2	> 50	0.31				4	10.2	11.6	10.1								
CCCOc1ccc(CN/C=C2\C(=O)NC(=O)c3ccc(I)cc32)nc1Br [Example 379, (Z)-4-(((6-Bromo-5-propoxypyridin-2-yl)methylamino)methylene)-6-iodoisoquinoline-1,3(2H,4H)-dione]				> 50	> 50	0.69									1.4	2.6	2.1	14
COc1ccc(NC=C2C(=O)NCc3cc(-c4cc[nH]c4)ccc32)cc1 [Example 850, 4-[(4-Methoxy-phenylamino)-methylene]-7-(1H-pyrrol-3-yl)-1,4-dihydro-2H-isoquinolin-3-one]	19.7	> 50	> 50				46.5	24.2	16	> 50								
CN(CCN1CCCC1)c1ccc(N/C=C2\C(=O)NC(=O)c3ccc(Br)cc32)cc1 [Example 864, (4Z)-6-Bromo-4-[({4-[methyl(2-pyrrolidin-1-ylethyl)amino]phenyl}amino)methylene]isoquinoline-1,3(2H,4H)-dione]	> 50	> 50	2.5				7.9	3.8	3.1	3.6								
CC(C)(C)c1ccc2c(c1)/C(=C/NCc1cc(O)c(-c3ccoc3)cc1F)C(=O)NC2=O [Example 534, 6-tert-Butyl-4-[(2-fluoro-4-furan-3-yl-5-hydroxy-benzylamino)-methylene]-4H-isoquinoline-1,3-dione]	> 50	> 50	0.09				0.73	1.2	1.6	2.6								
C=CC(=O)Nc1ccc(CN/C=C2\C(=O)NC(=O)c3ccc(I)cc32)cc1O [Example 342, N-[2-Hydroxy-4-({[(Z)-(6-iodo-1,3-dioxo-2,3-dihydroisoquinolin-4(1H)-ylidene)methyl]amino}methyl)phenyl]acrylamide]				0.86	2.9	0.01					0.07	0.09	0.12	0.15				
COc1ccc(CNC=C2C(=O)NC(=O)c3ccc(C=Cc4ccccc4)cc32)cc1O [Example 825, 4-[(3-Hydroxy-4-methoxy-benzylamino)-methylene]-6-styryl-4H-isoquinoline-1,3-dione]	36.3	> 50	0.02				24.7	22.1	11.9	12.3								
O=C1NC(=O)c2ccc(-c3ccco3)cc2C1=CNc1ccc(CN2CCCC2)cc1 [Example 169, 6-Furan-2-yl-4-[(4-pyrrolidin-1-ylmethyl-phenylamino)-methylene]-4H-isoquinoline-1,3-dione]				> 50	> 50	0.2					1.8	5.2	2.6	2.5				
(4Z)-6-Piperidin-1-yl-4-({[4-(methylPiperzin-1-yl)phenyl]amino}methylene)isoquinoline-1,3(2H,4H)-dione [Example 119]				> 50	> 50	1.62									7.5	7.3	3.3	6.2
CCOc1ccc(CN/C=C2\C(=O)NC(=O)c3ccc(Br)cc32)cc1O [Example 166, (4Z)-6-Bromo-4-{[(4-ethoxy-3-hydroxybenzyl)amino]methylene}isoquinoline-1,3(2H,4H)-dione]				45.5	> 50	0.03					1.4	2.2	1.3	19				

Further lines, with some results ahead:

IC50 (cyclin E/CDK2 enzyme; [3]) [µM]	IC50 (cyclin B/CDK1 enzyme; [6]) [µM]	IC50 (cyclin D1/cdk 4 enzyme; [7]) [µM]	IC50 (cyclin E/CDK2 enzyme; [10]) [µM]	IC50 (cyclin B/CDK1 enzyme; [13]) [µM]	IC50 (cyclin D1/cdk 4 enzyme; [14]) [µM]	Compound	IC50 (BT474; [1]) [µM]	IC50 (LoVo; [2]) [µM]	IC50 (HCT-116; [4]) [µM]	IC50 (MCF-7; [5]) [µM]	IC50 (BT474; [8]) [µM]	IC50 (LoVo; [9]) [µM]	IC50 (HCT-116; [11]) [µM]	IC50 (MCF-7; [12]) [µM]	IC50 (BT474; [15]) [µM]	IC50 (LoVo; three days) [µM]	IC50 (HCT-116; three days) [µM]	IC50 (MCF-7; three days) [µM]
6.5	17.3	0.01				CN(C)Cc1cccc(-c2ccc(CN/C=C3\C(=O)NC(=O)c4ccc(I)cc43)cc2O)c1 [Example 519, 4-{[(3′-Dimethylaminomethyl-2-hydroxy-biphenyl-4-ylmethyl)-amino]-methylene}-6-iodo-4H-isoquinoline-1,3-dione]	2.2	1.4	0.82	1								
			> 50	> 50	3	CC1CN(C)[C@H](C)CN1c1ccc(N/C=C2\C(=O)NC(=O)c3ccc(I)cc32)cc1 (stereo in doubt) [Example 233, (4Z)-6-Iodo-4-[({4-[(2S,5R)-2,4,5-trimethylpiperazin-1-yl]phenyl}amino)methylene]-isoquinoline-1,3(2H,4H)-dione]					6.9	4.4	5	1				
33.9	> 50	2.48				O=C1NC(=O)c2ccc(C=CCc3ccccc3)cc2C1=CNCc1ccc(O)c(O)c1 [Example 660, 4-[(3,4-Dihydroxy-benzylamino)-methylene]-6-(3-phenyl-propenyl)-4H-isoquinoline-1,3-dione]	10.4	7.6	7	6.1								
13.2	> 50	0.17				CN(C)C1CCN(Cc2ccc(N/C=C3\C(=O)NC(=O)c4ccc(-c5ccoc5)cc43)cc2)C1 (stereo not drawn) [Example 513, (4Z)-4-{[(4-{[3-(Dimethylamino)pyrrolidin-1-yl]methyl}phenyl)amino]methylene}-6-(3-furyl)isoquinoline-1,3(2H,4H)-dione]	1.84	3.45	1.54	2.53								
			> 50	> 50	0.18	CN1CCCC1c1ccc(N/C=C2\C(=O)NC(=O)c3ccc(-c4cccs4)cc32)cc1 (stereo not drawn) [Example 450, 4-{[4-(1-Methyl-pyrrolidin-2-yl)-phenylamino]-methylene}-6-thiophen-2-yl-4H-isoquinoline-1,3-dione]	1.9	2.8	2.5	2.5								
			> 50	> 50	2	CCCOc1cc(O)cc(CN/C=C2\C(=O)NC(=O)c3ccc(Br)cc32)c1 [Example 195]					17	37	6.9	14				
			> 50	> 50	0.34	CC(CN(C)C)N1CCN(c2ccc(N/C=C3\C(=O)NC(=O)c4ccc(I)cc43)cc2)CC1 (stereo not drawn) [Example 400, (4Z)-4-{[(4-{4-[2-(Dimethylamino)-1-methylethyl]piperazin-1-yl}phenyl)amino]methylene}-6-iodoisoquinoline-1,3(2H,4H)-dione]	9.33	8.6	2.9	8.7								
